Results taken from ChEMBL document CHEMBL5465560, “Selectivity Literature for EUbOPEN Chemogenomic Library” (2024).

Tests used:
[1] = target: Tyrosine-protein kinase Fes/Fps (Homo sapiens) (UniProt P07332); assay: Selectivity interaction (KinomeScan (DiscoverX)) EUB0000229b FES; conditions: at 10 µM
[2] = target: T1, Tyrosine-protein kinase Mer (Homo sapiens) (UniProt Q12866); assay: Selectivity interaction (KinomeScan (DiscoverX)) EUB0000092b MERTK; conditions: at 10 µM
T1 sequence (whole entry): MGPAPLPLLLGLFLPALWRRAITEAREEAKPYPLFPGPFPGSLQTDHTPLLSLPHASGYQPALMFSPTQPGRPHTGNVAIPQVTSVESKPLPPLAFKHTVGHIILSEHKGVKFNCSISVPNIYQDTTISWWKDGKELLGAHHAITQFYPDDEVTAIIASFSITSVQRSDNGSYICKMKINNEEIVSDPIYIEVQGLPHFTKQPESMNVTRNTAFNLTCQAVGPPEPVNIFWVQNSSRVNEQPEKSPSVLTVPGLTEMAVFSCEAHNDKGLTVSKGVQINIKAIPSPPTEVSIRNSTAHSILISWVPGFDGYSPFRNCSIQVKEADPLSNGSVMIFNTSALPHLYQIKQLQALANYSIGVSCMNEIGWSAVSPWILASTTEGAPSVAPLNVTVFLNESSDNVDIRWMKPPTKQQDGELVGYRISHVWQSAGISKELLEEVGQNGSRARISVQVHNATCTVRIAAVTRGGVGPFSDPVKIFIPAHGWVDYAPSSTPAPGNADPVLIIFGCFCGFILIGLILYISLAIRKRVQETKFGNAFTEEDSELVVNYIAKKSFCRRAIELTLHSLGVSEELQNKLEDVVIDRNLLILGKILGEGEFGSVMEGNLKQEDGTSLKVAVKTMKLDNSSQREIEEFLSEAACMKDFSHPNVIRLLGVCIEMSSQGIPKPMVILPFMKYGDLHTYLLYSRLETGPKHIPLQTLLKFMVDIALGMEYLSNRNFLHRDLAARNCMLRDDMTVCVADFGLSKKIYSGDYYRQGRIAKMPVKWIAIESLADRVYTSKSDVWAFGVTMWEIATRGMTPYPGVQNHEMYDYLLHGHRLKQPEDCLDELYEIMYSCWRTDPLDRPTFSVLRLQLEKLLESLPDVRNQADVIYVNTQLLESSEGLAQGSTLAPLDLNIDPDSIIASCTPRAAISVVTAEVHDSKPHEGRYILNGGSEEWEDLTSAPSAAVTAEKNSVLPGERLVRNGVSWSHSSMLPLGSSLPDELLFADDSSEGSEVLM

[3] = target: Serine/threonine-protein kinase 10 (Homo sapiens) (UniProt O94804); assay: Selectivity interaction (Kinase panel (DSF assay)) EUB0001489b STK10
[4] = target: T2, 3-phosphoinositide-dependent protein kinase 1 (Homo sapiens) (UniProt O15530); assay: Selectivity interaction (Kinase panel (literature)) EUB0001199aCl PDPK1; conditions: at 1 µM
T2 sequence (whole entry): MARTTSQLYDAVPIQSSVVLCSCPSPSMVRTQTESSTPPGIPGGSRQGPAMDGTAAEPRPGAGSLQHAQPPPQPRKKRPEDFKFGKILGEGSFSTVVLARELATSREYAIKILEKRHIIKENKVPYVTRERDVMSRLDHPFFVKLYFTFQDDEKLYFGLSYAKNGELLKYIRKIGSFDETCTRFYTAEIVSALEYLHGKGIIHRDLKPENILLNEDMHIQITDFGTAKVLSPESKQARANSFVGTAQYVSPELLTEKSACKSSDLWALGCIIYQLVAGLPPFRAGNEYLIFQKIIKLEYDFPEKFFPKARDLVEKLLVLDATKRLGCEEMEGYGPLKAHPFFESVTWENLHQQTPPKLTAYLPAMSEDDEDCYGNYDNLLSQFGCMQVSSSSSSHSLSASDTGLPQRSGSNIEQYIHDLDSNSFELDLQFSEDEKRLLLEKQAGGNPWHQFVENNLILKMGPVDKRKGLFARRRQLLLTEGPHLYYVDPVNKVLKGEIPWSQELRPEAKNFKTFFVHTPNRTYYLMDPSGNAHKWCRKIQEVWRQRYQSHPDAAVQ

[5] = target: T3, Mitogen-activated protein kinase kinase kinase kinase 3 (Homo sapiens) (UniProt Q8IVH8); assay: Selectivity interaction (KinomeScan (DiscoverX)) EUB0001619a MAP4K3; conditions: at 1 µM
T3 sequence (whole entry): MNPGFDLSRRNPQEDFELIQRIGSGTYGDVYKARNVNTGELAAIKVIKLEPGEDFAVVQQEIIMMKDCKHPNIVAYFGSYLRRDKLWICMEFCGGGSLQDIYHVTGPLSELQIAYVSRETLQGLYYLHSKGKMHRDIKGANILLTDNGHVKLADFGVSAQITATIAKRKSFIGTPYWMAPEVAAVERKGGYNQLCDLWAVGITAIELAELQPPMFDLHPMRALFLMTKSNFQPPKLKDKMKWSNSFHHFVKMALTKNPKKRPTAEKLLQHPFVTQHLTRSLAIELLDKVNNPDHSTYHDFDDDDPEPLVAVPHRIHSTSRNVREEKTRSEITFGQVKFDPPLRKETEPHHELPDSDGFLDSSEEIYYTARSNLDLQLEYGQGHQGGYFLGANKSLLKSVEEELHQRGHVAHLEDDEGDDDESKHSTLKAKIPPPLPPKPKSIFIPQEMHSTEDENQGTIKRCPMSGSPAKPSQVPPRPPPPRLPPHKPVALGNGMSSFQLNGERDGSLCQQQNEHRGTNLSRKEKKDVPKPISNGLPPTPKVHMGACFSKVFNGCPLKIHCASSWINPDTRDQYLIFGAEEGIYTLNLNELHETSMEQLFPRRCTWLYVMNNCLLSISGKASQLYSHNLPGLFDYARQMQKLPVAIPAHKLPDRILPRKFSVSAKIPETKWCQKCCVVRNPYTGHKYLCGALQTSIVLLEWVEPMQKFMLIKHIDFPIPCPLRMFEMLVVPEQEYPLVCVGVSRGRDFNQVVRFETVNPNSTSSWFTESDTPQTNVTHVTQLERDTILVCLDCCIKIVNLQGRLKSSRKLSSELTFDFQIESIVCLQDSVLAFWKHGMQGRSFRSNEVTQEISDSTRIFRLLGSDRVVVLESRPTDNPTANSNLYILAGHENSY

Chain of Tyrosine-protein kinase Fes/Fps (Homo sapiens) (P07332 whole entry): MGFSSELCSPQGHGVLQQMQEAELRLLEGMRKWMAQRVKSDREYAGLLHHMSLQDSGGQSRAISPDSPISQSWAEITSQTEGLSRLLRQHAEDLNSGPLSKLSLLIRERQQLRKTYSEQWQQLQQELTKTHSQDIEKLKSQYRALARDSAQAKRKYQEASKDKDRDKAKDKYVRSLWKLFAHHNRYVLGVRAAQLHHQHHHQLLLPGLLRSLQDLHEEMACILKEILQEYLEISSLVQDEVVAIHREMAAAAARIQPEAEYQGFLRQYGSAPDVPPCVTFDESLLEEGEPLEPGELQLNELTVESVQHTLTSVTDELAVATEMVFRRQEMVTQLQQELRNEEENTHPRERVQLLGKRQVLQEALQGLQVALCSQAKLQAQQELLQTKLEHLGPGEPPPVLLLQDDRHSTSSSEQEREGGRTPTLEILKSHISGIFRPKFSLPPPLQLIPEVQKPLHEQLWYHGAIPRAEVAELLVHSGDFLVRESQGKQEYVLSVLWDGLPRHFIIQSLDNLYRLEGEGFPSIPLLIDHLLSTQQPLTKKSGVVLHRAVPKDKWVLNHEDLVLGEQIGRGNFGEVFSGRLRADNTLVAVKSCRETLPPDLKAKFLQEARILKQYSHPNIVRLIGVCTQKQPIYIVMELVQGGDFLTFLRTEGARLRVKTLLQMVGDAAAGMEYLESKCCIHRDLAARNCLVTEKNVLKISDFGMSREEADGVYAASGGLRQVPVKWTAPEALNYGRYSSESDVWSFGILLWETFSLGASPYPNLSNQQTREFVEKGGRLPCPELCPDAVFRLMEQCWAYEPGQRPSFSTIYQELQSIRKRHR
Chain of Serine/threonine-protein kinase 10 (Homo sapiens) (O94804 whole entry, looked up): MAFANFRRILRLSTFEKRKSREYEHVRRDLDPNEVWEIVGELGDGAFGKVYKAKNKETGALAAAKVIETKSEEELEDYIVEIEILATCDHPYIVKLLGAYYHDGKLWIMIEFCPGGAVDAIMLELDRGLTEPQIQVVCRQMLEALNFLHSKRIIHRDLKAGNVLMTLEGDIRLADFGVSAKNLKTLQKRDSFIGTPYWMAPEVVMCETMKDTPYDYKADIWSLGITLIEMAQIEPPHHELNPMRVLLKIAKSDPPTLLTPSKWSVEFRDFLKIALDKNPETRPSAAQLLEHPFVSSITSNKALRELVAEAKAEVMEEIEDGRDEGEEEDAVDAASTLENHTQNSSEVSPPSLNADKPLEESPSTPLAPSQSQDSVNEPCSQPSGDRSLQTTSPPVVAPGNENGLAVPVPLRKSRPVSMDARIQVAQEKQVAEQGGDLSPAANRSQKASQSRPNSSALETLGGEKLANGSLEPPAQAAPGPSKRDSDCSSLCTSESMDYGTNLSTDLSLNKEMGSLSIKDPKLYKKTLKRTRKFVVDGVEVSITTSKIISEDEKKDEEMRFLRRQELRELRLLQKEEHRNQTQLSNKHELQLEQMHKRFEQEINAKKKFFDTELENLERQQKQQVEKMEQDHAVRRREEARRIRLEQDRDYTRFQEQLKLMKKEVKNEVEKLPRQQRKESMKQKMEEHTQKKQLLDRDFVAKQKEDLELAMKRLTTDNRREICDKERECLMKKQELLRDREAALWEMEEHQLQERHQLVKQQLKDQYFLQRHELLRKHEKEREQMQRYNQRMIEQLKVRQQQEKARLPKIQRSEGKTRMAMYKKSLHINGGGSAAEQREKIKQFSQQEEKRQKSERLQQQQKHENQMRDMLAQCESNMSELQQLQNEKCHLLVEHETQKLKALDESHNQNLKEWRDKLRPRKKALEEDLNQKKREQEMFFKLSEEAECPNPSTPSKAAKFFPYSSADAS

COc1cc(N(C)c2ccnc3ccc(C(F)(F)F)cc23)cc(OC)c1OC
% binding [1]: 100%

CCC(=O)N1CCN(c2ccc(-n3c(=O)ccc4cnc5ccc(-c6cnc7ccccc7c6)cc5c43)cc2C(F)(F)F)CC1
% of control [2]: 53%

CN1CCN(C(=O)c2ccc3cc2OCCOCCNc2ccn4ncc-3c4n2)CC1
dTM [3]: 2.3 K

CN1Cc2nccc(-c3cn(C)nc3-c3ccc(F)cc3)c2C1=O
% of inhibition [4]: -4%

N#Cc1cccc(-c2c[nH]c3ncnc(N4CCOCC4)c23)c1
% of control [5]: 4.8%
